Measurements from PMC6770581, “New Thalidomide-Resembling Dicarboximides Target ABC50 Protein and Show Antileukemic and Immunomodulatory Activities” (Biomolecules, 2019).

What was measured:
CFPAC cells = test: MTT cytotoxicity assay, CFPAC; assay type: cell-based; conditions: Homo sapiens, 48 h, mean ± SD
Experimental: (§1) Human umbilical vein endothelial cells (purchased from Life Technologies, Carlsbad, CA, USA) were cultured according to the manufacturer’s instructions in Medium 200 supplemented with Low Serum Growth Supplement. 1 × 10^4 cells were seeded on each well on a 96-well plate (Nunc, Roskilde, Denmark). The HeLa (human cervix carcinoma, cat. #93021013), CFPAC (human pancreatic adenocarcinoma, cat. #91112501), K562 (chronic myelogenous leukemia, cat. #89121407), HL-60 (acute myelogenous leukemia, cat. #98070106), and MOLT-4 (Human acute T lymphoblastic leukemia, cat. #85011413) cells were purchased from European Collection of Authenticated Cell Cultures (ECACC). They were cultured in an RPMI 1640 medium supplemented with antibiotics (streptomycin, penicillin) and 10% fetal calf serum (20% for HL60), in a 5% CO2-95% air atmosphere. 7 × 10^3 cells were seeded on each well on a 96-well plate (Nunc). 24 hours later the cells were exposed to the test compounds. The aliquots of stock solutions of the test compounds (freshly prepared in DMSO) were added to the cell cultures to yield final concentrations of 1, 10^−1, 10^−2, 10^−3, 10^−4, and 10^−5 mM. The concentration of DMSO in the cell culture medium was 1%. The IC50 value (the concentration of a test compound required to reduce the cell survival fraction to 50% of the control) was calculated from a dose-response curve and used as a measure of cellular sensitivity to a given treatment. The IC50 values are given as means (± standard deviation (SD)) from 2 independent experiments with 4 technical replicates. The cytotoxicity of all compounds was determined by the MTT (3-(4,5-dimethylthiazol-2-yl)-2,5-diphenyltetrazolium bromide) assay (Sigma, St. Louis, MO, USA). Briefly, after 24 h or 48 h of incubation with a given compound, the cells were treated with the MTT reagent and incubation was continued for 2 h. MTT-formazan crystals were dissolved in 20% SDS and 50% DMF at pH 4.7 and VIS light absorption was measured at 570 and 650 nm on a microplate reader FLUOstar Omega (BMG Labtech, Offenburg, Germany). As a control (100% viability), cells grown in the presence of 1% DMSO were used.

HeLa cells = conditions: 48 h, MTT, mean ± SD; cited from earlier work
HL-60 cells = conditions: 48 h, MTT, mean ± SD; cited from earlier work
[1] = tested on: HUVEC (human umbilical vein endothelial cells); conditions: 48 h, MTT, mean ± SD; cited from earlier work
IKZF1 and IKZF3 [2] = test: IKZF1 and IKZF3 level by immunoblotting in MOLT-4 cells; assay type: cell-based, human; conditions: MOLT-4, 48 h, 3 (5 µM), 5 (10 µM), 6 (2 µM)
Experimental: (§2) K562 or MOLT4 cells were seeded on 6-well plate (2 × 10^6 cells/well) in a RPMI 1640 medium containing 10% FBS. MOLT4 cells were exposed to 1% DMSO (vehicle control), test compounds 6 (2 µM), 3 (5 µM), 5 (10 µM). Similarly, K562 cells were exposed to 1% DMSO, test compounds 6 (1 µM), 3 (1 µM), 5 (1 µM) for 48 h. Cells treated with 100 µM thalidomide or 10 µM lenalidomide served as positive controls. After incubation, cells were centrifuged (600 rpm, 6 min, 24 °C), washed once with PBS and lysed in 20 mM Tris (pH 7.2) containing 1% Triton X-100 supplemented with Complete® protease inhibitors cocktail (Roche). The levels of IKZF1 and IKZF3 were assessed by immunoblotting (IB).
(§3) Cells were lysed in TBS buffer containing 1% Triton X-100 and Complete® protease inhibitor cocktail (Roche) for 15 min on ice with occasional vortexing. Insoluble material was centrifuged (12,000 rpm, 15 min, 4 °C) and supernatants were collected. Total protein concentration was measured with DC Protein Assay (Bio-Rad, Hercules, CA, USA). Cell lysates containing 30 µg of total protein were mixed with Laemli buffer supplemented with SDS and β-mercaptoethanol, denatured (10 min, 95 °C) and subjected to sodium dodecyl sulfate polyacrylamide gel electrophoresis (SDS-PAGE) electrophoresis (4% stacking and 10% resolving gels). Resolved proteins were electrotransferred (semi-dry, 90 min, 1.5 mA/cm^2) to a 0.45 µm nitrocellulose membrane (Thermo Scientific, Waltham, MA, USA). Membranes were blocked for 2 hours in TBST buffer (20 mM Tris-HCl pH 7.5, 0.9% NaCl, 0.1% Tween 20) containing 5% BSA (BioShop, Burlington, ON, Canada) and probed with primary antibodies (overnight at 4 °C) diluted in TBST buffer with 0.5% BSA. Tubulin served as a loading control for IB experiments. Anti IKZF3 (rabbit monoclonal, dilution 1:500), anti IKZF1 (rabbit polyclonal, dilution 1:500) were from Abcam. Anti IRF4 (rabbit polyclonal, dilution 1:500) were from Cell Signaling Technology. […] Protein bands intensities were analysed using Image Quant (version 5.0, GE Healthcare Life Sciences, Pittsburgh, PA, USA).

IKZF1 and IKZF3 [3] = test: IKZF1 and IKZF3 level by immunoblotting in K562 cells; assay type: cell-based, human; conditions: K562, 48 h, 3 (1 µM), 5 (1 µM), 6 (1 µM)
Experimental: as §2, §3

MOLT-4 cells = test: MTT cytotoxicity assay, MOLT-4; assay type: cell-based; conditions: Homo sapiens, 48 h, mean ± SD
Experimental: as §1

K562 cells = conditions: 48 h, MTT, mean ± SD; cited from earlier work

For `CCC12C(=O)C(CC)(C(c3ccccc3)=C1c1ccccc1)C1C(=O)N(CCN3CCCCC3)C(=O)C12` (stereo not drawn) [Compound 3], the IC50 (CFPAC cells) is listed as greater than 1000 µM, the IC50 (HeLa cells) is listed as greater than 100 µM and the IC50 (HL-60 cells) is listed as greater than 100 µM. The IC50 [1] was greater than 100 µM, the “level of IKZF1 and IKZF3 (immunoblotting)” value (“level of IKZF1 and IKZF3” for short) (IKZF1 and IKZF3 [2]) was “modest reduction” and the “level of IKZF1 and IKZF3” value (IKZF1 and IKZF3 [3]) was “modest reduction”. For the same compound, the IC50 (MOLT-4 cells) was 9 ± 0.6 µM and the IC50 (K562 cells) was 2 ± 0.31 µM.

For `CCC12C(=O)C(CC)(C(c3ccccc3)=C1c1ccccc1)C1C(=O)N(CC(O)CNC(C)C)C(=O)C12` (stereo not drawn) [Compound 5], the IC50 (CFPAC cells) is given as greater than 1000 µM, the IC50 (HeLa cells) is given as greater than 100 µM and the IC50 (HL-60 cells) is given as 2 ± 0.05 µM. For the same compound, the IC50 [1] was greater than 100 µM, the “level of IKZF1 and IKZF3” value (IKZF1 and IKZF3 [2]) was “significant diminution” and the “level of IKZF1 and IKZF3” value (IKZF1 and IKZF3 [3]) was “significant diminution”. The IC50 (MOLT-4 cells) was 20 ± 2.3 µM and the IC50 (K562 cells) was 1 ± 0.05 µM.

In the case of `CN(C)CCN1C(=O)C2C(C1=O)C1(c3ccccc3)CC2(c2ccccc2)C(c2ccccc2)=C1c1ccccc1` (stereo not drawn) [Compound 6], the IC50 (CFPAC cells) is given as 40 ± 3.1 µM, the IC50 (HeLa cells) is given as 1 ± 0.2 µM and the IC50 (HL-60 cells) is given as 5 ± 0.24 µM. For the same compound, the IC50 [1] was greater than 100 µM, the “level of IKZF1 and IKZF3” value (IKZF1 and IKZF3 [2]) was “significant diminution” and the “level of IKZF1 and IKZF3” value (IKZF1 and IKZF3 [3]) was “significant diminution”. The IC50 (MOLT-4 cells) was 4 ± 0.2 µM and the IC50 (K562 cells) was 1 ± 0.3 µM.
